Data: patent publication US7932050B2, “Enzymatic substrates derived from phenoxazinone and their use as developers in detection of microorganisms with peptidase activity” (bioMerieux, priority 2004, dated 2011)

What was measured:
Type in all cases: cell-based
Pseudomonas aeruginosa = assay: Detection of pyroglutamyl peptidase activity (example 10), colony coloration; details: between 24 and 48 h of incubation, no accession No.
[1] = test system: Burkholderia cepacia GI LMG1222; assay: as above; details: between 24 and 48 h of incubation; strain LMG1222
[2] = test system: Burkholderia cepacia GIII LMG 18832; assay: as above; details: between 24 and 48 h of incubation; strain LMG 18832
[3] = test system: Acinetobacter baumannii ATCC 19606; assay: as above; details: between 24 and 48 h of incubation; strain ATCC 19606
[4] = test system: Acinetobacter calcoaceticus; assay: as above; details: between 24 and 48 h of incubation
Pseudomonas fluorescens = assay: as above; details: between 24 and 48 h of incubation
[5] = test system: Pseudomonas fragilis NCIMB 8987; assay: as above; details: between 24 and 48 h of incubation; strain NCIMB 8987
Pseudomonas maltophilia = assay: as above; details: between 24 and 48 h of incubation
Ralstonia basilensis = details: between 24 and 48 h of incubation
Ralstonia taiwanensis = details: between 24 and 48 h of incubation
[6] = first P. aeruginosa strain of table 3 (r6)
[7] = second P. aeruginosa strain of table 3 (r8)
[8] = third P. aeruginosa strain of table 3 (r10)

CCCCCc1cc(=O)cc2oc3cc(NC(=O)[C@@H]4CCC(=O)N4)ccc3nc1-2 [Nonchlorinated pyroglutamyl compound, 7-N-(L-pyroglutamyl)amino-1-pentylphenoxazin-3-one]
coloration (Pseudomonas aeruginosa; [6]): purple | coloration (Pseudomonas aeruginosa; [7]): purple | coloration (Pseudomonas aeruginosa; [8]): purple | coloration [1]: yellow | coloration [2]: yellow | coloration [3]: colorless | coloration [4]: colorless | coloration (Pseudomonas fluorescens): colorless | coloration [5]: colorless | coloration (Pseudomonas maltophilia): colorless | coloration (Ralstonia basilensis): colorless | coloration (Ralstonia taiwanensis): colorless

CCCCCc1c2nc3ccc(NC(=O)[C@@H]4CCC(=O)N4)cc3oc-2cc(=O)c1Cl [Chlorinated pyroglutamyl compound, 7-N-(L-pyroglutamyl)amino-2-chloro-1-pentylphenoxazin-3-one]
coloration (Pseudomonas aeruginosa; [6]): purple | coloration (Pseudomonas aeruginosa; [7]): purple | coloration (Pseudomonas aeruginosa; [8]): purple | coloration [1]: yellow | coloration [2]: yellow | coloration [3]: colorless | coloration [4]: colorless | coloration (Pseudomonas fluorescens): colorless | coloration [5]: colorless | coloration (Pseudomonas maltophilia): colorless | coloration (Ralstonia basilensis): colorless | coloration (Ralstonia taiwanensis): colorless
